Where two headings read alike, the source gives them in different places.
Tests used:
HIV (HTLV-IIIB strain) = assay: MTT assay, MT-4 cells infected with HIV; assay type: cell-based; details: 5 days, inhibits 50% of cell damage caused by virus
Experimental: The inhibitory effects of each anti-human immunodeficiency virus active substance against human immunodeficiency virus have been determined by MTT assay described below.
(1) Human T cell strain Molt-4 clone 8 persistently infected HIV (HTLV-IIIB strain) was cultivated in RPMI-1640 medium supplemented with 10% fatal bovine serum, and supernatant was filtered, measured RT activity, and stored at −80° C. On the other hand, each human anti-immunodeficiency virus active substance was diluted to fixed concentration in culture medium, they were plated to 96-well microtiter plate. Subsequently, 100 μL (3.5×10^4 cells) of MT-4 cell suspension was plated to 96-well microtiter plate, and then above mentioned supernatant containing HIV, which was diluted by culture medium, was added 50 μL (60 pfu (plaque forming unit.)) to 96-well microtiter plate.
(2) After cultivation at 37° C. for 5 days in CO2 incubator, into all well was added 30 μL per well 3-(4,5-[…])-2,5-diphenyltetrazolium bromide (MTT) 5 mg/mL) and PBS, and then incubated for 1 h.
In this time, alive cells reduced MTT and formazan was precipitated, therefore, 150 μL of cell supernatants were removed from all wells, and then 150 μL of lysate (10% triton X-100 and 0.4% (v/v) HCl-containing isopropanol) was added, and formazan was eluated on a plate shaker.

HIV-1 integrase = HIV-1 integrase (Human immunodeficiency virus type 1 group M subtype B, UniProt P12497); assay: HIV-1 integrase inhibition assay (microtiter plate, substrate/target DNA)
Experimental: Substrate DNA and target DNA, which sequences were indicated below, were synthesized by Amersham Pharmacia Biotech and dissolved in KTE buffer (composition: 100 mM KCl, 1 mM EDTA, 10 mM Tris-HCl (pH 7.6)) at concentration of 2 pmol/μL and 5 pmol/μL, respectively. The DNA solutions were annealed with each complement by slowly cooling after heating.
(2) Calculations of the percent inhibitions (the IC50 values of test compounds)
Streptavidin, obtained from Vector Laboratories, was dissolved in 0.1 M carbonate buffer (composition: 90 mM Na2CO3, 10 mM NaHCO3) at concentration of 40 μg/mL. After coating each well of microtiter plates (obtained from NUNC) with 50 μL of the above solution at 4° C. over night, each well was washed twice with PBS (composition: 13.7 mM NaCl, 0.27 mM KCl, 0.43 mM Na2HPO4, 0.14 mM KH2PO4) and blocked with 300 μL of 1% skim milk in PBS for 30 min. Additionally, each well was washed twice with PBS and added 50 μL of substrate DNA solution (2 pmol/μL). The microtiter plates were kept at room temperature for 30 min. Then, each well was washed twice with PBS and once with H2O.
Subsequently, in the each well prepared above were added 45 μL of the reaction buffer prepared from 12 μL of the buffer (composition: 150 mM MOPS (pH 7.2), 75 mM MnCl2, 50 mM 2-mercaptoethanol, 25% glycerol, 500 μg/mL bovine serum albumin-fraction V), 1 μL of target DNA (5 pmol/μL), and 32 μL of the distilled water. Additionally, 6 μL of either a test compound in DMSO or DMSO for positive control(PC) was mixed with the above reaction buffer, then 9 μL of an integrase solution (30 pmol) was added and mixed well. In the well of negative control (NC) was added 9 μL of the integrase dilution buffer (composition: 20 mM MOPS (pH7.2), 400 mM potassium glutamate, 1 mM EDTA, 0.1% NP-40, 20% glycerol, 1 mM DTT, 4M urea).
The microtiter plates were incubated at 30° C. for 1 hour. The reaction solution was removed and each well was washed twice with PBS. Subsequently, each well of the microtiter plates was filled with 100 μL of anti-digoxigenin antibody labeled with alkaline phosphatase (Sheep Fab fragment: obtained from Boehringer) and incubated at 30° C. for 1 hour. Then, each well was washed twice with 0.05% Tween20 in PBS and once with PBS. Next, 150 μL of the Alkaline phosphatase reaction buffer (composition: 10 mM p-Nitrophenylphosphate (obtained from Vector Laboratories), 5 mM MgCl2, 100 mM NaCl, 100 mM Tris-HCl (pH 9.5))was added in each well. […] The optical density (OD) at 405 nm of each well was measured and the percent inhibition was determined by the following expression.
The percent inhibition (%)=100[1-{(C abs.−NC abs.)/(PC abs.−NC abs.)}]
C abs.; the OD of the well of the compounds
NC abs.: the OD of the negative control (NC)
PC abs.: the OD of the positive control (PC)
IC50(μg/mL)=x-{(X-50)(x-y)/(X-Y)}

[1] = Human immunodeficiency virus 1, MT4, 120 h, read-out: EC50

For “5-[(:3,5-dichlorophenyl)thio]-4-(1-methylethyl)-1-(4-pyridynylmethyl)-1H-imidazole-2-methanol carbamate [Capravirine]”, the EC50 (HIV (HTLV-IIIB strain)) was 0.0014 µg/mL.

For Cc1c(O)cccc1C(=O)N[C@@H](CSc1ccccc1)[C@H](O)CN1C[C@H]2CCCC[C@H]2C[C@H]1C(=O)NC(C)(C)C (relative stereo) [Nelfinavir, [3S-[2(2S*,3S*),3α,4aβ,8aβ]]-N-(1,1-dimethylethyl)-decahydro-2-[2-hydroxy-3-[(3-hydroxy-2-methylbenzoyl)amino]-4-(phenylthio)butyl]-3-isoquinolinecarboxamide], the EC50 (HIV (HTLV-IIIB strain); [1]) was 0.01 µg/mL.

Work on CC(C)c1nc(CN(C)C(=O)N[C@H](C(=O)N[C@@H](Cc2ccccc2)C[C@H](O)[C@H](Cc2ccccc2)NC(=O)OCc2cncs2)C(C)C)cs1 (relative stereo) [Ritonavir, [5S-(5R*,8R*,10R*,11R*)]-10-hydroxy-2-methyl-5-(1-methylethyl)-1-[2-(1-methylethyl)-4-thiazolyl]-3,6-dioxo-8,10-bis(phenylmethyl)-2,4,7,12-tetraazatridecane-13-hydroxy acid 5-thiazolylmethyl ester] yielded an EC50 (HIV (HTLV-IIIB strain); [1]) of 0.026 µg/mL.

For Nc1nc(NC2CC2)c2ncn([C@H]3C=C[C@@H](CO)C3)c2n1 [Abacavir], the EC50 (HIV (HTLV-IIIB strain); [1]) was 0.63 µg/mL.

Molecule O=C(C=C(O)c1nn[nH]n1)c1ccc(Cc2ccc(F)cc2)o1 [Compound I-3, 1-[5-(4-Fluorobenzyl)furan-2-yl]-3-hydroxy-3-(2H-tetrazol-5-yl)propenone] has a melting point of 121 to 123 °C and an IC50 (HIV-1 integrase) of 1270 nM.

Molecule O=C(C=C(O)c1nn[nH]n1)c1occc1Cc1ccc(F)cc1 [Compound I-11, 1-[3-(4-Fluorobenzyl)furan-2-yl]-3-hydroxy-3-(2H-tetrazol-5-yl)propenone] has a melting point of 171 to 174 °C and an IC50 (HIV-1 integrase) of 1340 nM.

In the case of O=C(C=C(O)c1nc[nH]n1)c1occc1Cc1ccc(F)cc1 [Compound I-12, 1-[3-(4-Fluorobenzyl)furan-2-yl]-3-hydroxy-3-(1H-1,2,4-triazol-3-yl)propenone], the melting point is reported as 221 to 223 °C and the IC50 (HIV-1 integrase) is reported as 1370 nM.

CCCn1cc(Cc2ccc(F)cc2)c(C(=O)C=C(O)c2nc[nH]n2)c1 [Compound I-17, 1-[[4-(4-Fluorobenzyl)-1-propyl]pyrrol-3-yl]-3-hydroxy-3-(1H-1,2,4-triazol-3-yl)propenone] gave a melting point of 210 to 211 °C and an IC50 (HIV-1 integrase) of 4510 nM.

For O=C(C=C(O)c1nc[nH]n1)c1c[nH]cc1Cc1ccc(F)cc1 [Compound I-19, 1-[4-(4-fluorobenzyl)pyrrol-3-yl]-3-hydroxy-3-(1H-1,2,4-triazol-3-yl)propenone], the melting point was 210 to 213 °C and the IC50 (HIV-1 integrase) was 2020 nM.

O=C(C=C(O)c1nn[nH]n1)c1ccoc1Cc1ccc(F)cc1 [Compound I-20, 1-[2-(4-Fluorobenzyl)furan-3-yl]-3-hydroxy-3-(2H-tetrazol-5-yl)propenone] showed a melting point of 150 to 153 °C and an IC50 (HIV-1 integrase) of 1020 nM.

O=C(C=C(O)c1nn[nH]n1)c1cn(S(=O)(=O)c2ccccc2)cc1CCc1ccccc1 [Compound I-21, 1-[[1-Benzenesulfonyl-4-(2-phenylethyl)]pyrrol-3-yl]-3-hydroxy-3-(2H-tetrazol-5-yl)propenone] showed a melting point of 178 to 181 °C and an IC50 (HIV-1 integrase) of 1200 nM.

O=C(C=C(O)c1nn[nH]n1)c1c[nH]cc1CCc1ccccc1 [Compound I-22, 3-Hydroxy-1-[(4-(2-phenylethyl))pyrrol-3-yl]-3-(2H-tetrazol-5-yl)propenone] showed a melting point of 228 to 230 °C and an IC50 (HIV-1 integrase) of 1910 nM.

In the case of O=C(C=C(O)c1nc[nH]n1)c1ccoc1Cc1ccc(F)cc1 [Compound I-25, 1-[2-(4-Fluorobenzyl)furan-3-yl]-3-hydroxy-3-(1H-1,2,4-triazol-3-yl)propenone], the melting point is reported as 144 to 147 °C and the IC50 (HIV-1 integrase) is reported as 1530 nM.

With O=C(C=C(O)c1nc[nH]n1)c1cc(C(=O)O)n(Cc2ccccc2)c1 [Compound I-29, 1-[(1-Benzyl-5-carboxy)pyrrol-3-yl]-3-hydroxy-3-(1H-1,2,4-triazol-3-yl)propenone] the melting point was 264 to 265 °C and the IC50 (HIV-1 integrase) was 2960 nM.

With O=C(C=C(O)c1ccccn1)c1ccc(Cc2ccc(F)cc2)o1 [Compound I-46, 1-[5-(4-Fluorobenzyl)furan-2-yl]-3-hydroxy-3-(pyridin-2-yl)propenone] the melting point was 84 to 85 °C and the IC50 (HIV-1 integrase) was 1360 nM.

Work on O=C(C=C(O)c1ncccn1)c1ccc(Cc2ccc(F)cc2)o1 [Compound I-47, 1-[5-(4-Fluorobenzyl)furan-2-yl]-3-hydroxy-3-(pyrimidin-2-yl)propenone] yielded an IC50 (HIV-1 integrase) of 1080 nM.

For O=C(C=C(O)c1ccccn1)c1cnc(Cc2ccc(F)cc2)o1 [Compound I-50, 1-[2-(4-Fluorobenzyl)oxazol-5-yl]-3-hydroxy-3-(pyridin-2-yl)propenone], the melting point was 108 to 109 °C and the IC50 (HIV-1 integrase) was 1230 nM.

O=C(C=C(O)c1ncccn1)c1cnc(Cc2ccc(F)cc2)o1 [Compound I-51, 1-[2-(4-Fluorobenzyl)oxazol-5-yl]-3-hydroxy-3-(pyrimidin-2-yl)propenone] showed a melting point of 97 to 100 °C and an IC50 (HIV-1 integrase) of 1480 nM.

For CC(C)Nc1cccnc1N1CCN(C(=O)c2cc3cc(NS(C)(=O)=O)ccc3[nH]2)CC1 [Delavirdine, 1-[5-methanesulfonamideindolyl-2-carbonyl]-4-[3-(1-methylethylamino)-2-pyridyl]piperadine], the EC50 (HIV (HTLV-IIIB strain); [1]) was 0.012 µg/mL.

With O=c1[nH]cnc2c1ncn2C1CCC(CO)O1 (stereo not shown) [Didanosine, 2′,3′-dideoxyinosine] the EC50 (HIV (HTLV-IIIB strain); [1]) was 0.64 µg/mL.

In the case of O=C1Nc2ccc(Cl)cc2C(C#CC2CC2)(C(F)(F)F)O1 [Efavirenz, (S)-(−)-6-chloro-4-(chloropropylethynyl)-1,4-dihydro-4-(trifluoromethyl)-2H-3,1-benzoxazin-2-one], the EC50 (HIV (HTLV-IIIB strain); [1]) is reported as 0.00058 µg/mL.

In the case of CCOCn1c(Cc2ccccc2)c(C(C)C)c(=O)[nH]c1=O [Emivirine, 6-benzyl-1-(ethoxymethyl)-5-isopropyluracil], the EC50 (HIV (HTLV-IIIB strain); [1]) is reported as 0.0045 µg/mL.

With CC(C)(C)NC(=O)[C@@H]1CN(Cc2cccnc2)CCN1CC(O)C[C@@H](Cc1ccccc1)C(=O)N[C@H]1c2ccccc2C[C@H]1O (stereo partly drawn) [Indinavir, [1(1S,2R),5(s)]-2,3,5-trideoxy-N-(2,3-dihydro-2-hydroxy-1H-inden-1-yl)-5-[2-{[(1,1-dimethylethyl)amino]carbonyl}-4-(3-pyridinylmethyl)-1-piperadinyl]-2-(phenylmethyl)-D-erythro-pentonamide] the EC50 (HIV (HTLV-IIIB strain); [1]) was 0.014 µg/mL.

With Cc1ccnc2c1NC(=O)c1cccnc1N2C1CC1 [Nevirapine] the EC50 (HIV (HTLV-IIIB strain); [1]) was 0.02 µg/mL.

With CC(C)(C)NC(=O)[C@@H]1C[C@@H]2CCCC[C@@H]2CN1C[C@@H](O)[C@H](Cc1ccccc1)NC(=O)[C@H](CC(N)=O)NC(=O)c1ccc2ccccc2n1 [Saquinavir, N-tert-butyl-decahydro-2-[2(R)-hydroxy-4-phenyl-3(S)-{[N-(2-quinolylcarbony)-L-asparginyl]amino}butyl]-(4aS,8aS)-isoquinoline-3(S)-carboxamide] the EC50 (HIV (HTLV-IIIB strain); [1]) was 0.0037 µg/mL.

For Nc1ccn([C@H]2CC[C@@H](CO)O2)c(=O)n1 [Zalcitabine, 2′,3′-dideoxycytidine], the EC50 (HIV (HTLV-IIIB strain); [1]) was 0.017 µg/mL.

With “(±)-α-[(2-acetyl-5-methylphenyl)amino]-2,6-dichlorobenzeneacetomide [Loviride]” the EC50 (HIV (HTLV-IIIB strain)) was 0.011 µg/mL.
